Results as given in patent US5739115A, “Sulfated maltooligosaccharides with heparin-like properties” (Glycomed Incorporated, priority 1994, dated 1998).

Assays:
bFGF = assay: Binding of RO-12 UC cells to bFGF coated micro-titer wells; type: cell-based, human; conditions: result in words, FIGS. 1 and 3
Method: Bound cells are readily quantitated as total protein.
The assay was run as follows: Fifty microliters of 10 ug/ml human recombinant bFGF was added to wells of a 96-well tissue culture plate and incubated overnight at 4° C. The wells were aspirated with PBS to remove any unbound bFGF, rinsed twice with PBS, and subsequently incubated with PBS containing 5% (v/v) fetal bovine serum for 1 hour at room temperature. RO-12 UC cells were suspended at a density of 3×10^6 cells/ml in PBS containing 5% fetal bovine serum. To this mixture was added the desired amount of sulfated composition, or heparin. […] Next, 100 ul of the cell suspension was immediately added to the microtiter wells, and incubated for 5 minutes, after which the wells were washed 3 times with PBS. Finally, the amount of cell protein bound to the wells was determined by dissolving the bound cells in 20 ul of 5% SDS and measuring the protein. concentration of the cell lysates. BSA was used as the standard.

[1] = system: adrenocortical endothelial (ACE) cell line; assay: Inhibition of bFGF-dependent adrenocortical endothelial (ACE) cell proliferation; type: cell-based; conditions: 2 ng/ml bFGF, four days, result in words, FIGS. 2 and 4
Method: The capacity of the sulfated maltohexaoses to inhibit the proliferation of a bFGF-dependent adrenocortical endothelial (ACE) cell line was determined. This cell line (provided by D. Gospodarowicz, UCSF) requires either aFGF or bFGF for a proliferative response. Cells were seeded at low density in microtiter wells in the presence of 2 ng/ml bFGF, and growth was determined as total protein after four days in the presence of the sulfated maltohexaoses.

[2] = system: chicken chorioallantoic membrane (CAM); assay: Chicken chorioallantoic membrane (CAM) assay, angiostatic activity; type: in vivo
Excerpt: Compositions that stimulate or inhibit angiogenesis can be identified using several assays known in the art. The chick chorioallantoic membrane (CAM) assay is commonly used. Using the CAM assay, certain heparinoids inhibit angiogenesis when administered with certain steroids. Folkman and Ingber, Ann, Surg. (1987) 206:374, Folkman et at., Science (1983) 221:719.
Compositions that stimulate or inhibit angiogenesis can be identified using several assays known in the art. Highly sulfated maltotetraose, Composition 5, Table 2, was tested for angiogenesis activity using the chicken chorioallantoic membrane (CAM) assay. The assay was performed as described by Castellot et. at., J. of Cellular Physiology (1986) 127: 323-329, with the exception that samples were evaluated for their efficacy to inhibit neovascularization. Carboxy methyl cellulose pellets containing 50 ug of hydrocortisone, or hydrocortisone plus different amounts of highly sulfated maltotetraose were incubated on the CAM for 3-4 days before scoring the results. Highly sulfated maltotetraose was produced as described in Example 2. Angiostatic activity is defined as a partial clearing or an avascular zone around the pellet. […]

[3] = system: pericyte and smooth muscle cell; conditions: literature; result in words; cited from earlier work
heparanase = assay: Heparanase inhibition, rat hepatoma cell heparanase; type: biochemical
Method: Highly sulfated maltotetraose, Composition 5, Table 2, maltoheptaose and maltose were tested for heparanase inhibitory activity using heparanase from a rat hepatoma cell line. […] Further, their inhibitory activities were compared to porcine mucosal heparin. […] The following procedures and materials were used. Confluent rat hepatoma cell cultures were grown in standard cell culture flasks, and washed 3 times with 10 ml of a 50 mM Hepes solution containing 0.25M sucrose and 0.14M NaCl, pH 7.4. Next, 1 ml of a 50 mM MES buffer, pH 5.2, containing 0.14M NaCl, 6 mM sodium azide, and certain protease inhibitors was added and the cells removed from the flask using a disposable cell scraper. The following protease inhibitors were present in the MES buffer: 0.2 ug/ml aprotinin, 0.5 ug/ml leupeptin, 100 ug/ml soybean trypsin inhibitor, 1 mM PMSF, 2 mM EDTA (sodium salt), and 15 mM D-saccharic acid 1,4 lactone (exoglucuronidase inhibitor).
The cells were added to a 7 ml Dounce homogenizer, freezed/thawed 3 times in an ethanol/dry ice bath, and homogenized with 15 strokes using a tight pestle. The resulting cell lysates were placed in a 2 ml centrifuge tube and centrifuged at 4° C. for 30 minutes at 16,000×g. The supernatant was removed, and the protein concentration in the supernatant determined using the Macro BCA protein assay. BSA was used as a standard. Heparanase activity was quantified by measuring soluble N-^3 H-acetylated pancreas heparan sulfate fragments derived from uncleaved N-^3 H-acetylated pancreas heparan sulfate distinguishable by cetylpyridinium chloride (CPC) precipitation. […] The following procedures were used.
Next, 10 ul of distilled water containing various concentrations of porcine mucosal heparin, or the appropriate highly sulfated maltooligosaccharide, was added. Then, 30 ul of rat hepatoma cell supernatant, isolated as described above, containing 7.5-10 ug of protein in 50mM MES buffer, pH 5.2, containing 0.14M NaCl, 6mM sodium azide and the protease inhibitors described above, is added to siliconized 1.5 ml microcentrifuge tubes. Three to six replicates were run for each concentration of highly sulfated maltotetraose while three replicates were run for each concentration of porcine mucosal heparin. Controls were run to account for background counts.
The enzyme substrate inhibitor mixture was mixed, after which the tubes were incubated at 37° C. for 20 minutes. After 20 minutes, the reaction was stopped by adding to the reaction tubes 150 ul of an aqueous heparin solution (0.33 mg/ml). 200 ul of 100 mM sodium acetate pH 5.5 and 100 ul of CPC (0.6% in water) were then added. Three replicates maintained on ice were run as background controls (0 min.) in which the enzyme was added to the tubes immediately followed by heparin to terminate the reaction. […]

[4] = system: Bovine smooth muscle cells (SMC); assay: Inhibition of smooth muscle cell (SMC) growth; type: cell-based; conditions: for inhibition of SMC growth (anti-proliferative activity): relative to heparin
Excerpt: Maltotetraose, maltopentaose and maltohexaose were sulfated as described in Examples 1-3, and assayed for their effects on smooth muscle cell proliferation using a standard assay for this activity. A convenient assay, in detail, is as follows:
Solutions to be tested are made up in DMEM medium containing 10% fetal calf serum and penicillin/streptomycin. Bovine smooth muscle cells (SMC) are isolated from bovine aorta by the method of Ross, R., J Cell Biol (1971) 172-186. SMC from passage 3-10 are plated at 350-700 cells per well in 96-well microtiter plates in the medium above and allowed to attach for 2-4 hr. The complete medium is then replaced with DMEM supplemented with 0.1% fetal calf serum, and the cells are incubated for an additional period of about 24 to 72 hr to arrest cell growth. The low-serum medium is then replaced with complete medium containing the test samples. The sulfated maltose oligosaccharides of the invention were added to the medium to make final concentrations as shown in the figures. The effects of heparin at the same concentrations were also determined.
The cells are allowed to grow for up to 7 days with replicate plates sampled at regular intervals. Cell number is determined by removing the medium and washing the cells with phosphate-buffered saline, adding 75-150 ul lysis buffer, and assaying for lactate dehydrogenase (LDH) activity, as described by Brandley, B., et at., J Biol Chem (1987) 262:6431. The activity of LDH is proportional to cell number.

MDA231 = MDA231 mammary adenocarcinoma tumor growth in nude mice; type: in vivo, human tumor in nude mouse; conditions: for MDA231 tumor growth inhibition: result in words
Method: (§1) Experiments were conducted to test the efficacy of highly sulfated maltotetraose, Composition 5, Table 2, on tumor growth in an animal model system, the nude mouse. The growth of human tumors in the nude mouse has clinical relevance to the growth of tumors in humans.
(§2) Three human tumor cell lines were utilized, the mammary adenocarcinoma, MDA231, the pancreatic tumor cell line, CAPAN-2, and the prostatic adenocarcinoma cell line, PC-3. All cell lines are available from the American Type Culture Collection, and grow aggressively in nude mice. The experiments were conducted as follows: female, 15-20 gram nude mice, in groups of ten, were inoculated subcutaneously with 3-5×10^6 viable MDA231, CAPAN-2, or PC-3 cells in 0.1 ml PBS. The cells were grown in standard DMEM tissue culture media supplemented with 10% fetal calf serum in a humidified 5% CO2 incubator at 37° C. The cells were harvested with trypsin-EDTA, washed 2× with PBS, resuspended at a concentration of 3-5×10^7 cells/ml, and placed on ice prior to injection.
On a dally basis, the mice were subcutaneously injected with 100 mg/kg of highly sulfated maltotetraose made up in PBS, and produced as described in Example 2. The composition was filter sterilized with a 0.2 um Gelman filter unit.
(§3) Tumor volume was determined using the following formula: [formula]
Control mice were injected with PBS vehicle only. Experimental and control mice were injected twice daily with 0.05 ml of the appropriate solution starting on days 0-40 post tumor challenge. From days 41-70 the animals were dosed once daily with 100 mg/kg/day in a volume of 0.1 ml per injection, and tumor volume measured at defined times using standard methods.

PC-3 = PC-3 prostatic adenocarcinoma tumor growth in nude mice; type: in vivo, human tumor in nude mouse; conditions: 80 mg/kg/day subcutaneous, 23 days, all time points tested; result in words
Method: as §1, §2
[…] The composition was filter sterilized with a 0.2 um Gelman filter unit.
as §3
Finally, the effects of highly sulfated maltotetraose on the human prostatic adenocarcinoma line, PC-3, was determined. This cell line is also available from the American Type Culture Collection. […]

CAPAN-2 = CAPAN-2 pancreatic tumor growth in nude mice; type: in vivo, human tumor in nude mouse; conditions: dosed once daily from day 0; result in words
Method: as §1
as §2, with “injection. […]” for “injection.”
as §3
The effects of highly satfated maltotetraose on CAPAN-2 tumor cell growth were determined using the materials and methods set forth above with the following exceptions. […]

vascular proliferation = conditions: literature; result in words; cited from earlier work
[5] = system: basic fibroblast growth factor; conditions: literature; result in words; cited from earlier work
[6] = listed as highly sulfated maltotriose
[7] = hydrocortisone 50 ug/pellet alone, 24 hr
[8] = listed as highly sulfated maltose

Q: Which “inhibition of binding of RO-12 UC cells to bFGF coated wells” value (shortened to “inhibition of binding of RO-12 UC cells”) (bFGF; [6]) does the source give for “highly sulfated maltotriose [Composition 8]” here?
A: less active

Q: And the “inhibition of binding of RO-12 UC cells” value (bFGF; listed as sulfated maltotriose)?
A: little or no activity

Q: What about the “inhibition of adrenocortical endothelial cell proliferation” value [1, 6] of the same compound?
A: less active

Q: What about the “inhibition of adrenocortical endothelial cell proliferation” value ([1]; listed as sulfated maltotriose) of the same compound?
A: little or no activity

Q: For C[C@]12CCC(=O)C=C1CC[C@@H]1[C@@H]2[C@@H](O)C[C@@]2(C)[C@H]1CC[C@]2(O)C(=O)CO [Hydrocortisone, hydrocortisone], which “number of embryos scored, NO EFFECT” value [2, 7] is on record?
A: 27 embryos

Q: And the “number of embryos scored, avascular zone (++)” value [2, 7]?
A: 0 embryos

Q: And the “number of embryos scored, partial clearing (+)” value [2, 7]?
A: 2 embryos

Q: Which “inhibition of pericyte and/or smooth muscle cell proliferation” value [3] does the source give for chondroitin sulfate here?
A: do not have this effect

Q: With “highly sulfated maltotetraose [Composition 5]” as the compound, how does the “heparanase IC50” value (heparanase; rat hepatoma heparanase, pH 5.2, 37° C., 20 minutes) read?
A: 9.0 µg/mL

Q: What about the “heparanase inhibition relative to porcine mucosal heparin” value (heparanase; result in words, FIG. 11) of the same compound?
A: approximately one half as effective as porcine mucosal heparin

Q: What about the “inhibition of SMC growth” value ([4]; 150 ug/ml, result in words) of the same compound?
A: one hundred per cent inhibition was not observed

Q: And the “inhibition of SMC growth, per cent of heparin inhibition” value ([4]; about 60 ug/ml)?
A: about 50%

Q: And the “inhibition of SMC growth (anti-proliferative activity)” value ([4]; result in words)?
A: significant anti-proliferative effects, although not as great as heparin

Q: What about the “MDA231 tumor growth inhibition” value (MDA231; 100 mg/kg subcutaneous) of the same compound?
A: tumor growth is significantly inhibited

Q: And the “time at which inhibition is first apparent” value (MDA231; MDA231, about)?
A: 36 to 37 days

Q: And the tumor volume (MDA231; MDA231, days 68-69, control about 375 mm^3)?
A: ~125 mm^3

Q: What about the “MDA231 tumor growth inhibition” value (MDA231; by days 68-69) of the same compound?
A: dramatic

Q: And the “inhibition of binding of RO-12 UC cells” value (bFGF)?
A: significant activity

Q: What about the angiostatic activity ([2]; HSM alone, without hydrocortisone, result in words) of the same compound?
A: inactive

Q: What about the “inhibition of adrenocortical endothelial cell proliferation” value [1] of the same compound?
A: significant activity

Q: And the PC-3 growth inhibition (PC-3)?
A: inhibited PC-3 cell growth at all the time points tested

Q: And the “CAPAN-2 tumor growth inhibition” value (CAPAN-2)?
A: significantly inhibits tumor growth

Q: Which “inhibition of SMC growth, per cent of heparin inhibition” value ([4]; about 50 ug/ml) does the source give for “highly sulfated maltopentaose [Composition 6]” here?
A: 100%

Q: What about the “inhibition of SMC growth (anti-proliferative activity)” value ([4]; result in words) of the same compound?
A: more effective in inhibiting SMC proliferation than the smaller-sized sulfated maltotetraose

Q: And the “inhibition of binding of RO-12 UC cells” value (bFGF)?
A: significant activity

Q: And the “inhibition of adrenocortical endothelial cell proliferation” value [1]?
A: significant activity

Q: With heparan sulfate as the compound, how does the “vascular proliferation associated with injury” value (vascular proliferation) read?
A: slow or arrest the vascular proliferation

Q: With “highly sulfated maltoheptaose [Composition 7]” as the compound, how does the heparanase inhibition (heparanase; result in words) read?
A: as active as heparin

Q: What about the “inhibition of binding of RO-12 UC cells” value (bFGF) of the same compound?
A: significant activity

Q: What about the “inhibition of adrenocortical endothelial cell proliferation” value [1] of the same compound?
A: significant activity

Q: For heparin, which “concentration that gave 100% inhibition of SMC proliferation” value ([4]; heparin reference) is on record?
A: 150 µg/mL

Q: What about the “inhibition of binding of RO-12 UC cells” value (bFGF) of the same compound?
A: inhibits RO-12 UC cell binding

Q: What about the “vascular proliferation associated with injury” value (vascular proliferation) of the same compound?
A: slow or arrest the vascular proliferation

Q: What about the “binding to basic fibroblast growth factor” value [5] of the same compound?
A: binds heparin quite strongly in vitro

Q: What about the “inhibition of pericyte and/or smooth muscle cell proliferation” value [3] of the same compound?
A: inhibitor of both pericyte and smooth muscle cell proliferation

Q: Which heparanase inhibition (heparanase; at greater than 200 ug/ml, result in words) does the source give for highly sulfated maltose [Composition 9] here?
A: no activity

Q: And the “inhibition of binding of RO-12 UC cells” value (bFGF)?
A: little or no activity relative to the highly sulfated maltotetraose composition

Q: And the “inhibition of binding of RO-12 UC cells” value (bFGF; [8])?
A: less active

Q: What about the “inhibition of adrenocortical endothelial cell proliferation” value [1] of the same compound?
A: little or no activity relative to the highly sulfated maltotetraose composition

Q: And the “inhibition of adrenocortical endothelial cell proliferation” value [1, 8]?
A: less active

Q: For dermatan sulfate, which “inhibition of pericyte and/or smooth muscle cell proliferation” value [3] is on record?
A: do not have this effect
